Test results reported in paper PMC7524750, “Dual COX and 5-LOX inhibition by clerodane diterpenes from seeds of Polyalthia longifolia (Sonn.) Thwaites” (Scientific Reports, 2020).
Like-named read-outs stand apart in the source and are kept apart here.

What was measured:
COX-2 = biological target: T1, COX-2 (Homo sapiens, UniProt P35354); assay: Cyclooxygenase COX-2 inhibitory assay (Cayman COX inhibitor assay kit); assay type: biochemical; conditions: mean ± SD, n=3; for inhibition at 2.5 µg/mL / inhibition at 5 µg/mL / inhibition at 7.5 µg/mL / inhibition at 10 µg/mL: read-out: Percentage inhibition COX2
T1 construct: purchased Cayman 560131
T1 sequence (P35354 18-604): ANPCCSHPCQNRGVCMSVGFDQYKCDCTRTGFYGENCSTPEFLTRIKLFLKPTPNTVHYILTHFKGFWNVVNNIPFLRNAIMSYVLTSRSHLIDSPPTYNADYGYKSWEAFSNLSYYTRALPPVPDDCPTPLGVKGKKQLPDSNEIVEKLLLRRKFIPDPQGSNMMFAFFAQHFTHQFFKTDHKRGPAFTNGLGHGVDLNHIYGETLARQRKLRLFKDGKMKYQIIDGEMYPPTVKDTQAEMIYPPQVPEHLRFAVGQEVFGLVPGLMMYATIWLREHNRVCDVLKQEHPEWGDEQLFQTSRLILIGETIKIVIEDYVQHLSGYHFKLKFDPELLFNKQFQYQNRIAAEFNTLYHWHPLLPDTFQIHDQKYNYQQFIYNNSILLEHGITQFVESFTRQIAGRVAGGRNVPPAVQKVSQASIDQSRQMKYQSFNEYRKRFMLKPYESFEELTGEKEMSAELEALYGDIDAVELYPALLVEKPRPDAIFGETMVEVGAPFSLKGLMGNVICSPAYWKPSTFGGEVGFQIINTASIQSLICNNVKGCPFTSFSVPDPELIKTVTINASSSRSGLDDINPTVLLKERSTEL
Description: (§1) To 10 µl of either COX1 or COX2 added 0.1 M Tris–HCl buffer (960 µl) and different known concentrations of test samples and incubated at 37 °C for 10 min. Later 10 µl of 100 µM arachidonic acid, after 2 min 1 M HCl of 50 µl and Ellman’s reagent, were added. The absorbance was measured spectrophotometrically at 410 nm against the blank. The percentage of inhibition was deliberated with the absorbance values, and IC50 values were calculated by linear regression.

COX-1 = biological target: T2, COX-1 (Ovis aries, UniProt P05979); assay: Cyclooxygenase COX-1 inhibitory assay (Cayman COX inhibitor assay kit); assay type: biochemical, ovine; conditions: mean ± SD, n=3; for inhibition at 2.5 µg/mL / inhibition at 5 µg/mL / inhibition at 7.5 µg/mL / inhibition at 10 µg/mL: read-out: Percentage inhibition COX1
T2 construct: purchased Cayman 560131
T2 sequence (P05979 25-600): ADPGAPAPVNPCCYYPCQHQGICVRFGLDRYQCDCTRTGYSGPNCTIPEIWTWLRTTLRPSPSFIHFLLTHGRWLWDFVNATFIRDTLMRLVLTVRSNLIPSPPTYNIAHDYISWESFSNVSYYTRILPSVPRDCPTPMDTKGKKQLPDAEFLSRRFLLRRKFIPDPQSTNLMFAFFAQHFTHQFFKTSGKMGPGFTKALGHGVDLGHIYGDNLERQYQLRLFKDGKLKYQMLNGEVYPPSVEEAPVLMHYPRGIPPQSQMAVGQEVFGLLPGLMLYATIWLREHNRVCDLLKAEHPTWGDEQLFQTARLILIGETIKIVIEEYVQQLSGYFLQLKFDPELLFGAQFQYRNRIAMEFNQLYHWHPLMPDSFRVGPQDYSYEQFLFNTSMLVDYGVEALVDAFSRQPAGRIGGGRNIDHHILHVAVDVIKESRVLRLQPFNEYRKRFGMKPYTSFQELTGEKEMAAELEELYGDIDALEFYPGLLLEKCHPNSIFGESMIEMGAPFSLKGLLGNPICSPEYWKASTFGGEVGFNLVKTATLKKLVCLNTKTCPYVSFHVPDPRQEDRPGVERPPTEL
Description: as §1

[1] = biological target: T3, 5-LOX (human recombinant) (Homo sapiens, UniProt P09917); assay: 5-lipoxygenase inhibitory assay (5-LOX assay kit); assay type: biochemical; conditions: mean ± SD, n=3; for inhibition at 2.5 µg/mL / inhibition at 5 µg/mL / inhibition at 7.5 µg/mL / inhibition at 10 µg/mL: read-out: Percentage inhibition 5-LOX
T3 construct: purchased Sigma Aldrich 437996
T3 sequence (P09917 1-674): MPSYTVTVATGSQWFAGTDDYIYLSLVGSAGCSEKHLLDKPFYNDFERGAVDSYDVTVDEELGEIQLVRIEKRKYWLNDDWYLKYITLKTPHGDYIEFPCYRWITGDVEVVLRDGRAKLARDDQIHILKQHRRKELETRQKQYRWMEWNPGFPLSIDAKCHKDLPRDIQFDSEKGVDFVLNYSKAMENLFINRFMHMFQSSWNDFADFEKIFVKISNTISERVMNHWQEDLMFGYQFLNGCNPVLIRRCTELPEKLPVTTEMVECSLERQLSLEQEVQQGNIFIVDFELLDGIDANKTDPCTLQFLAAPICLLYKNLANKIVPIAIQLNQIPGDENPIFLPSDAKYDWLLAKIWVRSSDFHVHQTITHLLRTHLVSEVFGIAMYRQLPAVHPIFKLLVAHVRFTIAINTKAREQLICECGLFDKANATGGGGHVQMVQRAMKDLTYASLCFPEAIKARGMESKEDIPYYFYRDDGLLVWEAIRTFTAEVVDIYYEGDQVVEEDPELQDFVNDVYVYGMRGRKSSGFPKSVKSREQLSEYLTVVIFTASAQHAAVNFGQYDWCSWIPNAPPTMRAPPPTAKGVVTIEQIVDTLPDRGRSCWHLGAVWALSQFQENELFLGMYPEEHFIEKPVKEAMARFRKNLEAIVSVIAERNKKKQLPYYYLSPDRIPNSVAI
Description: To 90 µl of 5-LOX enzyme solution added different test sample concentrations, 100 µl of de chromogen, and finally added 10 µl of the substrate (arachidonic acid) and gently shake or 10 min and absorbance was measured at 490 nm against the blank. The % inhibition was deliberated with the absorbance values by which IC50 values were calculated by linear regression.

[2] = linear regression, read-out: IC50 values COX2 (converted)
[3] = linear regression, read-out: IC50 values COX1 (converted)
[4] = IC50 5-LOX (concentration required for 50% inhibition), Fig. 2
[5] = linear regression, read-out: IC50 values 5-LOX (converted)

inhibition at 2.5 µg/mL (COX-2) [%] | inhibition at 5 µg/mL (COX-2) [%] | inhibition at 7.5 µg/mL (COX-2) [%] | inhibition at 10 µg/mL (COX-2) [%] | IC50 (COX-2; Fig. 2, read-out: IC50 COX-2) [µM] | IC50 (COX-2; [2]) [µM] | inhibition at 2.5 µg/mL (COX-1) [%] | inhibition at 5 µg/mL (COX-1) [%] | inhibition at 7.5 µg/mL (COX-1) [%] | inhibition at 10 µg/mL (COX-1) [%] | IC50 (COX-1; Fig. 2, read-out: IC50 COX-1) [µM] | IC50 (COX-1; [3]) [µM] | inhibition at 2.5 µg/mL [1] [%] | inhibition at 5 µg/mL [1] [%] | inhibition at 7.5 µg/mL [1] [%] | inhibition at 10 µg/mL [1] [%] | IC50 [1, 4] [µM] | IC50 [1, 5] [µM] | Structure (SMILES)
34.5 ± 2.11 | 59.2 ± 0.77 | 77.4 ± 0.9 | 85 ± 1.17 | 12.7 ± 0.34 | 12.7 | 16.3 ± 3 | 28.3 ± 3.1 | 42.5 ± 1.68 | 50.9 ± 0.6 | 30.44 ± 0.3 | 30.4 | 12.5 ± 1.45 | 24.5 ± 1.92 | 40 ± 4.41 | 51.2 ± 1.35 | 30.5 ± 0.53 | 30.5 | CC1=CCCC2C1(C)CCC(C)C2(C)CCC(=CC(=O)O)CO (stereo not shown) [Compound 2, 16-hydroxy-cleroda-3,13-dien-15-oic acid]
48.8 ± 0.96 | 63.2 ± 1.41 | 73.3 ± 1.15 | 82.97 ± 0.44 | 8.49 ± 0.55 | 8.51 | 38.1 ± 0.72 | 61.5 ± 1.84 | 68.3 ± 2.99 | 83.9 ± 2.27 | 11.8 ± 0.19 | 11.8 | 34.7 ± 1.47 | 59.3 ± 0.66 | 77.5 ± 0.92 | 85 ± 1.05 | 12.7 ± 0.21 | 12.7 | C=C1CCCC2C1(C)CCC(C)C2(C)CCC1=CC(=O)OC1O (stereo not shown) [Compound 3, 16-hydroxy-cleroda-4(18),13-dien-16,15-olide]
36.8 ± 2.52 | 55.21 ± 0.43 | 67.1 ± 2.47 | 75.1 ± 2.73 | 12.8 ± 0.21 | 12.8 | 40.8 ± 0.79 | 61.1 ± 0.69 | 72.3 ± 3.77 | 79.5 ± 2.53 | 10.8 ± 0.17 | 10.9 | 23.2 ± 2.28 | 44.3 ± 1.68 | 55.4 ± 0.65 | 67.2 ± 2.67 | 16.9 ± 0.56 | 17 | C=C1C(O)CCC2C1(C)CCC(C)C2(C)CCC1=CC(=O)OC1O (stereo not drawn) [Compound 4, 3α,16α-dihydroxy-cleroda-4(18),13(14)Z-dien-15,16-olide]
46.6 ± 0.9 | 57.2 ± 1.57 | 69.3 ± 3.66 | 79.4 ± 4.39 | 10.3 ± 0.26 | 10.3 | 42.3 ± 2.05 | 79.5 ± 1.01 | 86.5 ± 1.27 | 92.9 ± 2.46 | 9.46 ± 0.33 | 9.45 | 30 ± 1.04 | 54.1 ± 1.1 | 67.2 ± 4.61 | 75.8 ± 2.97 | 14.4 ± 0.32 | 14.4 | CC1=CCCC2C1(C)CCC(C)C2(C)CCC1=CC(=O)OC1O (stereo not drawn) [Compound 5, 16α-hydroxy-cleroda-3,13(14)Z-dien-15,16-olide]
 |  |  |  |  |  |  |  |  |  |  |  | 12.4 ± 1.49 | 23.1 ± 4.16 | 42.8 ± 1.82 | 64.4 ± 0.72 |  |  | O=C(O)Cc1ccccc1Nc1c(Cl)cccc1Cl [Diclofenac, reference compound]

Structure (SMILES) | inhibition at 2.5 µg/mL (COX-2) [%] | inhibition at 5 µg/mL (COX-2) [%] | inhibition at 7.5 µg/mL (COX-2) [%] | inhibition at 10 µg/mL (COX-2) [%] | IC50 (COX-2; Fig. 2, read-out: IC50 COX-2) [µM] | IC50 (COX-2; [2]) [µM] | inhibition at 2.5 µg/mL (COX-1) [%] | inhibition at 5 µg/mL (COX-1) [%] | inhibition at 7.5 µg/mL (COX-1) [%] | inhibition at 10 µg/mL (COX-1) [%] | IC50 (COX-1; Fig. 2, read-out: IC50 COX-1) [µM] | IC50 (COX-1; [3]) [µM] | inhibition at 2.5 µg/mL [1] [%] | inhibition at 5 µg/mL [1] [%] | inhibition at 7.5 µg/mL [1] [%] | inhibition at 10 µg/mL [1] [%] | IC50 [1, 4] [µM] | IC50 [1, 5] [µM]
CC1=CCCC2C1(C)CCC(C)C2(C)CCC(C=O)=CC(=O)O (stereo not shown) [Compound 1, 16-oxo-cleroda-3,13(14)E-dien-15-oic acid] | 10.7 ± 2.91 | 23.4 ± 3.07 | 42.8 ± 0.72 | 62.9 ± 3.84 | 26.4 ± 0.45 | 26.4 | 21.8 ± 1.55 | 40.3 ± 3.77 | 47.1 ± 2.71 | 60.4 ± 4.48 | 25.1 ± 0.99 | 25.1 | 13.4 ± 0.72 | 25.7 ± 2.74 | 41.1 ± 1.43 | 65.4 ± 0.93 | 26.4 ± 0.39 | 26.4
